Drawing on ChEMBL document CHEMBL2073794, “Catecholamine transport by the organic cation transporter type 1 (OCT1)” (Br J Pharmacol, 1998), this text covers Activity for six compounds.

The data set has as its target T1, Solute carrier family 22 member 1 (Rattus norvegicus, UniProt Q63089).
T1 sequence (Q63089 whole entry): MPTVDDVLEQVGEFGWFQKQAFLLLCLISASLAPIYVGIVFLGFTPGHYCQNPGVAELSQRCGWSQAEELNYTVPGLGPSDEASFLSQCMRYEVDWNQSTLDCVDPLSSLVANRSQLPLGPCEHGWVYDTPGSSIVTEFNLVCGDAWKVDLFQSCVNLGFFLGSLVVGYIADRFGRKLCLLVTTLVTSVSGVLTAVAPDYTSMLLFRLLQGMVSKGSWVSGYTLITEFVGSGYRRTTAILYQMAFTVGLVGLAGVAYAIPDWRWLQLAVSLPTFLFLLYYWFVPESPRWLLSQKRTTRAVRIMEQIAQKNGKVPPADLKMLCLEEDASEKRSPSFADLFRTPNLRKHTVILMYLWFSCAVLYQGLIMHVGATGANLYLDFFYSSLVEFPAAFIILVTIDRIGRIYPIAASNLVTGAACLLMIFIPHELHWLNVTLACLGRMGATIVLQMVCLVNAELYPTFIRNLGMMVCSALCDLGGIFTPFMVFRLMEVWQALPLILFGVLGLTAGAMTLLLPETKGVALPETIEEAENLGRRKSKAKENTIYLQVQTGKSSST
Kind of data set: TP_TRANSPORTER: uptake in OCT1-expressing HEK293 cells. The class given is functional, cell-based. The settings on record: human.
For the compound `NCCc1ccc(O)c(O)c1` [DOPAMINE], the Activity result was “substrate [+]”.
`CNC[C@H](O)c1ccc(O)c(O)c1` [EPINEPHRINE]: the Activity result was “substrate [+]”.
Then `NC[C@H](O)c1ccc(O)c(O)c1` [NOREPINEPHRINE], with “substrate [+]”; and `NCCc1c[nH]c2ccc(O)cc12` [SEROTONIN], with “substrate [+]”; and `CC[N+](CC)(CC)CC` [TETRYLAMMONIUM], with “substrate [+]”.
The entry for `NCCc1ccc(O)cc1` [TYRAMINE] is “substrate [+]”.
